Several values for one entry are separate records, joined by “and”; a condition that tells them apart may be missing. Equal values may be shown once. A value given as a limit tells only on which side of the number the result lay.

As a reminder, the inhibition is the change of the read-out against control, counted positive when it falls.

Assay [1] deals with Protein Serine/Threonine Kinase PKC, non-selective. Nature of the assay: Protein Serine/Threonine Kinase PKC, non-selective, inhibition assay. It is filed as biochemical, rat. As to the method: Protein Serine/Threonine Kinase PKC, non-selective: The enzyme was obtained from rat brain and the substrate was 370 μg/ml histone. The reaction was pre-incubated 5 min at 25° C., followed by a 15 min incubation at 25° C. in a buffer of 20 mM Tris-HCl, 10 mM MgCl2.HO and 0.1 mM CaCl2.2HO, pH 7.4. [^32P]histone was quantitated.

The test system of assay [2] is male Cynomolgus monkeys (Macaca fascicularis). Briefly: Erection monitoring after single intracavernosal dose. It is filed as in vivo. Also on record: key to Onset Score / Duration Score: 0: no response; erection but transient—less than 1 minute; 2: erection lasting at least 1 minute but less than 5 minutes; 3: erection lasting at least 5 minutes but less than 7 minutes; 4: erection lasting longer than 7 minutes. The following applies: 10 mg/ml intracavernosal; for Erection Score: Erection Score=2D+O; for Erection Index: Erection Score/n, n=number of animals (4 monkeys); for Onset of Erection: minutes post administration. As to the method:
In this example, various halogenated derivatives of flosequinan were evaluated for their ability to induce penile erections. A single intracavernosal dose (of a given halogenated derivative of flosequinan) was administered to male Cynomolgus monkeys (Macaca fascicularis). The Cynomolgus monkey was selected because it is an appropriate established non-rodent species to be used as an erectile dysfunction model. Before the application of the test substances the possible erectile effect of dimethylsulfoxide 25% (DMSO) at a dose volume of 0.15 ml was assessed. (Concentrations of test compounds of less than 10 mg/ml were administered in 25% DMSO. Concentrations of 10 mg/ml or greater were administered in 100% DMSO). An initial dose level of 0.625 mg/kg of the test substance and the derivatives were used. If an erectile effect of the initial dose level was observed 1.25 mg/kg and finally 2.5 mg/kg of each test substance was used. Between each dose level and change of test substance there was a wash out phase of three days [except on Days 1 to 4 (Monochloroflosequinan Racemate) and days 40 to 43 (Monofluoroflosequinan) of the study where there was a wash out phase of only two days between treatments]. Dose volume: A dose volume of 0.15 ml per animal was used. The test substances were prepared according to the following scheme. For each test substance 10 mg was diluted in 1 ml of DMSO. After the test substance was completely dissolved the solution was diluted stepwise 1:2 with double distilled water to the required dose level. The test substance was formulated on the day of the dosing and stored at room temperature. No stability test was required when the test substances were formulated on the day of dosing. Remaining test substances were stored at approximately -80° C. Sufficient purpose-bred naive Cynomolgus monkeys (Macaca fascicularis) were obtained from a recognized supplier in order to provide 4 healthy male animals. At the start of study the animals were in the weight range of 4 to 7 kg and approximately 4 to 6 years old. The animals were housed in a climate controlled room to provide a minimum of 10 air changes per hour. Routinely the temperature and relative humidity ranges were between 19-25° C. and 30-70% respectively. Artificial lighting was controlled automatically to give a cycle of 12 hours light and 12 hours dark. The animals were housed singly in stainless steel cages (dimensions: 600 mm×600 mm×800 mm; E. Becker & Co. GmbH, 44579 Castrop-Rauxel, Germany). Each animal was offered twice daily between 50 to 70 g of a commercial pellet diet for primates (Ssniff P10, Ssniff Spezialdiäten GmbH, Ferdinand-Gabriel-Weg 16, 59494 Soest, Germany). Every three months diet was analyzed for specific contaminants. Tap water was provided ad libtum via an automatic watering system or bottles, except during urine collection. The water was periodically analyzed for specific contaminants found to be present in the diet or water at levels that might interfere with achieving the objective of the study. Clinical Observations: In addition to the initial pharmacological effect (penile erection) monitoring, all animals were observed twice daily for signs of ill health or overt toxicity. An individual record was maintained of the clinical condition of each animal. Post-dosing observations were performed at the discretion of the Study Director. All animals were examined at the beginning and the end of the working hours. […] Body weights were recorded once before dosing. Food consumption was not recorded. For proof of erection capability the animals were checked once pre-dose with electrostimulation using a rectal probe under sedation with […]. […] The onset post drug administration and duration of erection were recorded. Table 5 (below) provides an “Erection Score” and “Erection Index” for the same selected halogenated flosequinan derivatives presented in Table 5. […]

In a further assay the test system is PDE3. Nature of the assay: Biochemical assay of PDE3 inhibition by flosequinan enantiomers. The following applies: same molar concentration. From the text:
It is not intended that the present invention be limited to any particular mechanism to reduce symptoms of sexual dysfunction. In one embodiment, the (+) and (−) enantiomers of flosequinan were subjected to biochemical assays to determine their respective percent inhibition of PDE3.

For the next assay, the target named is T1, PDE1 (Bos taurus, UniProt P14100).
T1 construct: PDE1 partially purified from bovine heart was used; from tissue; host or cells: bovine heart
Briefly: PDE1 enzyme inhibition assay. The following applies: 1000 μM, 1% DMSO vehicle. It is filed as biochemical, bovine. An excerpt: In this example, a racemic mixture of monochloroflosequinan and the sulfone derivative of monochloroflosequinan were independently subjected to biochemical enzyme assays to determine their respective percent inhibition of a variety of phosphodiesterases (PDE1-PDE6). The methods used have been adapted from those described in the scientific literature, see Hidaka and Asano “Human blood platelet 3′:5′ cyclic nucleotide phosphodiesterase. Isolation of low-Km and high Km phosphodiesterase.” Biochem. Biophys. Acta 429:485 (1976); Nicholoson et al. “Differential modulation of tissue function and therapeutic potential of selective inhibitors of cyclic nucleotide phosphodiesterase isoenzymes” Trends Pharmacol. Sci. 12:19 (1991); Cortijo et al. “Investigation into the role of phosphodiesterase IV in bronchorelaxation, including studies with hyman bronchus.” Br. J. Pharmacol. 108:562 (1993); Baehr et al. “Isolation and characterization of cGMP phosphodiesterase from bovine rod outer segments.” J. Biol. Chem. 254:11669 (1979) and Gillespie and Beavo “Inhibition and stimulation of photoreceptor phosphodiesterase by dipyridamole and M&B 22,948” Molecular Pharm. 36:773 (1989). A brief summary of the conditions for each enzyme assay is provided below: • PDE1: PDE1 partially purified from bovine heart was used. The compounds were independently incubated with 13 μg PDE1 enzyme, 1.01 μM [^3H]cAMP+cAMP and CaCl2/calmodulin in Tris buffer pH 7.5 for 20 minutes at either 25° C. or 30° C. The reaction was terminated by boiling for 2 minutes, and the resulting AMP was converted to adenosine by addition of 10 mg/ml snake venom nucleotidase and further incubation at 30° C. for 10 minutes. Unhydrolyzed cAMP was bound to AGI-X2 resin, and the remaining [^3H]adenosine in the aqueous phase was quantitated by scintillation counting. • PDE2: PDE2 partially purified from human platelets was used. The compounds were independently incubated with 23 μg PDE2 enzyme, 25.1 μM [^3H]cAMP+cAMP in Tris buffer pH 7.5 for 20 minutes at either 25° C. or 30° C. The reaction was terminated by boiling for 2 minutes, and the resulting AMP was converted to adenosine by addition of 10 mg/ml snake venom nucleotidase and further incubation at 30° C. for 10 minutes. Unhydrolyzed cAMP was bound to AGI-X2 resin, and the remaining [^3H]adenosine in the aqueous phase was quantitated by scintillation counting. • PDE3: PDE3 partially purified from human platelets was used. The compounds were independently incubated with 13 ug PDE3 enzyme and 1.01 μM [^3H]cAMP+cAMP in Tris buffer pH 7.5 for 20 minutes at either 25° C. or 30° C. The reaction was terminated by boiling for 2 minutes, and the resulting AMP was converted to adenosine by addition of 10 mg/ml snake venom nucleotidase and further incubation at 30° C. for 10 minutes. Unhydrolyzed cAMP was bound to AGI-X2 resin, and the remaining [^3H]adenosine in the aqueous phase was quantitated by scintillation counting. • PDE4: PDE4 partially purified from human U-937 pronocytic cells was used. The compounds were independently incubated with 20 μg PDE4 enzyme and 1.01 μM [^3H]cAMP+cAMP in Tris buffer pH 7.5 for 20 minutes at either 25° C. or 30° C. […] Unhydrolyzed cAMP was bound to AGI-X2 resin, and the remaining [^3H]adenosine in the aqueous phase was quantitated by scintillation counting. • PDE5: PDE5 partially purified from human platelets was used. […]

The next assay relates to PDE4. Briefly: PDE4 enzyme inhibition assay. The format is biochemical, human. The following applies: 1000 μM, 1% DMSO vehicle. An excerpt:
In this example, a racemic mixture of monochloroflosequinan and the sulfone derivative of monochloroflosequinan were independently subjected to biochemical enzyme assays to determine their respective percent inhibition of a variety of phosphodiesterases (PDE1-PDE6). The methods used have been adapted from those described in the scientific literature, see Hidaka and Asano “Human blood platelet 3′:5′ cyclic nucleotide phosphodiesterase. Isolation of low-Km and high Km phosphodiesterase.” Biochem. Biophys. […] Unhydrolyzed cAMP was bound to AGI-X2 resin, and the remaining [^3H]adenosine in the aqueous phase was quantitated by scintillation counting. • PDE2: PDE2 partially purified from human platelets was used. […] Unhydrolyzed cAMP was bound to AGI-X2 resin, and the remaining [^3H]adenosine in the aqueous phase was quantitated by scintillation counting. • PDE3: PDE3 partially purified from human platelets was used. […] Unhydrolyzed cAMP was bound to AGI-X2 resin, and the remaining [^3H]adenosine in the aqueous phase was quantitated by scintillation counting. • PDE4: PDE4 partially purified from human U-937 pronocytic cells was used. […] Unhydrolyzed cAMP was bound to AGI-X2 resin, and the remaining [^3H]adenosine in the aqueous phase was quantitated by scintillation counting. • PDE5: PDE5 partially purified from human platelets was used. […]

Consider `Cn1cc([S+]([O-])CF)c(=O)c2ccc(F)cc21` (racemic) [monofluoroflosequinan, 7-fluoro-3-fluoromethylsulfinyl-1-methyl-4-quinolone], for which the “inhibition of protein serine/threonine kinase, PKC, non-selective” value in assay [1] (100 μM, result in words) is reported as “Significant inhibition”; in assay [1] (300 μM, result in words), “Significant inhibition”; in assay [1] (1000 μM, 1% DMSO vehicle, result in words), “Significant inhibition”. Besides, the “Duration Score” value in assay [2] (monkey 11539M) is listed as 0; in assay [2] (monkey 11543M) it was 0; in assay [2] (monkey 11584M), 0; in assay [2] (monkey 11590M), 4 (erection lasting longer than 7 minutes). The “Onset Score” value in assay [2] (monkey 11539M) is 0; in assay [2] (monkey 11543M) it was 0; in assay [2] (monkey 11584M), 0; in assay [2] (monkey 11590M) it was 4 (erection onset 1 minute or less (immediate)). Also, the “Erection Score” value in assay [2] (monkey 11539M) turned out to be 0; in assay [2] (monkey 11543M), 0; in assay [2] (monkey 11584M) it was 0; in assay [2] (monkey 11590M), 12. Besides, the “Duration Erection” value in assay [2] (monkey 11590M) is 1 min and 2 min. Also, the “Erection Index” value in assay [2] was determined as 3.0.

As to `Cn1cc([S+](C)[O-])c(=O)c2ccc(F)cc21` (single isomer, unassigned; (+)) [(+) enantiomer of flosequinan], in the assay with PDE3, the “PDE3 inhibition compared to a racemic mixture of flosequinan” value is “greater inhibition” and the “PDE3 inhibition compared to the (−) enantiomer of flosequinan” value is listed as “eight-fold increase”.

In the case of `Cn1cc(S(=O)(=O)C(F)F)c(=O)c2ccc(F)cc21` [3-difluoromethylsulfonyl-7-fluoro-1-methyl-4-quinolone], the inhibition at 1000 µM against PDE1 was above 50%. Further, in the assay with PDE4, the “inhibition of PDE4” value is given as “greater than 50%”.

As for `Cn1cc([S+]([O-])CC(=O)O)c(=O)c2ccc(F)cc21` (stereo not drawn) [carboxyflosequinan, 3-carboxymethylsulfinyl-7-fluoro-1-methyl-4-quinolone], the “inhibition of protein serine/threonine kinase, PKC, non-selective” value in assay [1] (100 μM, 1% DMSO vehicle) was “greater than 50%”; in assay [1] (300 μM, 1% DMSO vehicle), “greater than 50%”; in assay [1] (1000 μM, 1% DMSO vehicle), “greater than 50%”. The “Duration Score” value in assay [2] (monkey 11539M) is on record as 0; in assay [2] (monkey 11543M) it was 0; in assay [2] (monkey 11584M), 0; in assay [2] (monkey 11590M) it was 4 (erection lasting longer than 7 minutes). In addition, the “Onset Score” value in assay [2] (monkey 11539M) is on record as 0; in assay [2] (monkey 11543M) it was 0; in assay [2] (monkey 11584M) it was 0; in assay [2] (monkey 11590M), 4 (erection onset 1 minute or less (immediate)). For the same molecule, the “Erection Score” value in assay [2] (monkey 11539M) was 0; in assay [2] (monkey 11543M), 0; in assay [2] (monkey 11584M), 0; in assay [2] (monkey 11590M), 8. Moreover, the “Duration Erection” value in assay [2] (monkey 11590M) amounted to 2 min. The “Onset of Erection” value in assay [2] (monkey 11590M) is reported as “immediate <1 min”. Moreover, in assay [2], the “Erection Index” value came out at 2.

Take `Cn1cc([S+]([O-])C(F)F)c(=O)c2ccc(F)cc21` (stereo not drawn) [difluoroflosequinan, 3-difluoromethylsulfinyl-7-fluoro-1-methyl-4-quinolone]: in assay [2] (monkey 11539M), the “Duration Score” value is 0, the “Onset Score” value stood at 0 and the “Erection Score” value is on record as 0. Also, in assay [2] (monkey 11543M), the “Duration Score” value is 0, the “Onset Score” value is 0 and the “Erection Score” value was 0. Further, in assay [2] (monkey 11584M), the “Duration Score” value was 0, the “Onset Score” value is on record as 0 and the “Erection Score” value is listed as 0. Also, in assay [2] (monkey 11590M), the “Duration Erection” value came out at 6 min, the “Duration Score” value is recorded as 3 (erection lasting at least 5 minutes but less than 7 minutes), the “Onset Score” value was 4 (erection onset 1 minute or less (immediate)) and the “Onset of Erection” value is “immediate <1 min”. Moreover, the “Erection Score” value in assay [2] (monkey 11590M) amounted to 10. The “Erection Index” value in assay [2] turned out to be 2.5.

(Values after patent publication US7041677B2, “Use of monochloroflosequinan in the treatment of sexual dysfunction” (R.T. Alamo Ventures I, LLC, priority 2002, dated 2006).)
